Legend:
Format in all cases: in vivo
[1] = system: Lolium multiflorum; assay: Herbicidal post-emergence action, LOLMU
Procedure: (§1) 2. Herbicidal Post-Emergence Action
(§2) • Seeds of monocotyledonous and dicotyledonous weed and crop plants are placed in sandy loam in wood-fiber pots, covered with soil and cultivated in a greenhouse under good growth conditions. 2 to 3 weeks after sowing, the test plants are treated at the one-leaf stage. The test compounds, formulated as wettable powders (WP), are then, with a water application rate of 600 l/ha (converted), with 0.2% of wetting agent added, sprayed at various dosages onto the green parts of the plants. After the test plants have been kept in the greenhouse under optimum growth conditions for about 3 weeks, the activity of the preparations is rated visually in comparison to untreated controls (herbicidal activity in percent: 100% activity=the plants have died, 0% activity=like control plants). • In addition to the compounds mentioned above, the following compounds show an activity of 90-100% against Alopecurus myosuroides, Avena fatua, Digitaria sanguinalis, Echinocloa crus-galli, Lolium multiflorum, Setaria viridis and Sorghum halapense when applied by the post-emergence method at 320 g/ha: I-a-2, I-a-4, I-a-5, I-a-7, I-a-9, I-a-10, I-a-11, I-a-12, I-a-13, I-a-15. • In addition to the compounds mentioned above, the following compounds show an activity of 90-100% against Alopecurus myosuroides, Avena fatua, Echinocloa crus-galli, Lolium multiflorum and Setaria viridis when applied by the post-emergence method at 80 g/ha: I-a-1, I-b-2.
(§3) • Seeds of monocotyledonous and dicotyledonous weed plants and crop plants are placed in wood-fiber pots in sandy loam and covered with soil. The test compounds, formulated in the form of wettable powders (WP) or emulsion concentrates (EC), are then, as an aqueous suspension with a water application rate of 600-800 l/ha (converted), with 0.1-0.2% of wetting agent added, applied at various dosages to the surface of the covering soil. • After the treatment, the pots are placed in a greenhouse and kept under good growth conditions for the test plants. […] Herbicidal Post-Emergence Action (Post) • Seeds of monocotyledonous and dicotyledonous weed and crop plants are placed in sandy loam in wood-fiber pots, covered with soil and cultivated in a greenhouse under good growth conditions. 2-3 weeks (stages 10-13 according to the BBCH scale) after sowing, the test plants are treated at a height of 5-10 cm. The test compounds, formulated as wettable powders (WP) or emulsion concentrates (EC), are then, with a water application rate of 600-800 l/ha (converted), with 0.1-0.2% of wetting agent added, sprayed at various dosages onto the green parts of the plants.
(§4) AVEFA: Avena fatua LOLMU: Lolium multiflorum SETVI: Setaria viridis CHEAL: Chenopodium album VIOTR: Viola tricolor VERPE: Veronica persica ORYSA: Oryza sativa TRZAS: Triticum aestivum ZEAMX: Zea mays ALOMY: Alopecurus myosuroides DIGSA: Digitaria sanguinalis ECHCG: Echinocloa crus-galli SORHA: Sorghum halepense AVESA: Avena sativa AMARE: Amaranthus retroflexus SINAL: Sinapis alba STEME: Stellaria media

[2] = system: Setaria viridis; assay: Herbicidal post-emergence action, SETVI
Procedure: as §1, §2, §3, §4

[3] = system: Avena sativa; assay: Herbicidal post-emergence action, AVESA; details: Avena sativa, post-emergence
Excerpt: as §3, with “the plants. […]” for “the plants.”

[4] = system: Amaranthus retroflexus; assay: Herbicidal post-emergence action, AMARE; details: Amaranthus retroflexus, post-emergence
Excerpt: as §3, with “the plants. […]” for “the plants.”

[5] = system: Sinapis alba; assay: Herbicidal post-emergence action, SINAL; details: Sinapis alba, post-emergence
Excerpt: as §3, with “the plants. […]” for “the plants.”

[6] = system: Stellaria media; assay: Herbicidal post-emergence action, STEME; details: Stellaria media, post-emergence
Excerpt: as §3, with “the plants. […]” for “the plants.”

[7] = system: Spodoptera frugiperda; assay: Spodoptera frugiperda test (SPODFR spray treatment); details: Spodoptera frugiperda, 168 h; 500 g/ha; 7dat
Procedure: Spodoptera Frugiperda Test (SPODFR Spray Treatment) [table] To produce a suitable preparation of active compound, 1 part by weight of active compound is mixed with the stated amount of solvent and emulsifier, and the concentrate is diluted with emulsifier-containing water to the desired concentration. Discs of corn leaves (Zea mays) are sprayed with an active compound preparation of the desired concentration and, after drying, populated with caterpillars of the armyworm (Spodoptera frugiperda). After 7 days, the effect in % is determined. 100% means that all caterpillars have been killed; 0% means that none of the caterpillars have been killed. Spodoptera Frugiperda Test (SPODFR Spray Treatment) To produce a suitable preparation of active compound, 1 part by weight of active compound is mixed with the stated amount of solvent and emulsifier, and the concentrate is diluted with emulsifier-containing water to the desired concentration. Discs of corn leaves (Zea mays) are sprayed with an active compound preparation of the desired concentration and, after drying, populated with caterpillars of the armyworm (Spodoptera frugiperda). After the desired period of time, the activity in % is determined. 100% means that all caterpillars have been killed; 0% means that none of the caterpillars have been killed.

[8] = system: Tetranychus urticae; assay: Tetranychus test (TETRUR spray treatment; OP-resistant in Example 10); details: Tetranychus urticae, 120 h; 20 g/ha; 5dat; OP-resistant
Procedure: Tetranychus Test (TETRUR Spray Treatment)
To produce a suitable preparation of active compound, 1 part by weight of active compound is mixed with the stated amount of solvent and emulsifier, and the concentrate is diluted with emulsifier-containing water to the desired concentration. Discs of bean leaves (Phaseolus vulgaris) which are infested by all stages of the greenhouse red spider mite (Tetranychus urticae) are sprayed with an active compound preparation of the desired concentration.
After 5 days, the effect in % is determined. 100% means that all of the spider mites have been killed; 0% means that none of the spider mites have been killed.
Tetranychus Test, OP-Resistant (TETRUR Spray Treatment)
To produce a suitable preparation of active compound, 1 part by weight of active compound is mixed with the stated amount of solvent and emulsifier, and the concentrate is diluted with emulsifier-containing water to the desired concentration.
Discs of bean leaves (Phaseolus vulgaris) which are infested by all stages of the greenhouse red spider mite (Tetranychus urticae) are sprayed with an active compound preparation of the desired concentration.
After the desired period of time, the activity in % is determined. 100% means that all of the spider mites have been killed; 0% means that none of the spider mites have been killed.

[9] = system: Liriomyza trifolii; assay: Liriomyza trifolii spray test (LIRITR); details: Liriomyza trifolii, 168 h, 7dat, read-out: % Activity LIRITRI
Procedure: Liriomyza Trifolii-Spray Test ([…]) To produce a suitable preparation of active compound, 1 part by weight of active compound is mixed with the stated amount of solvent and emulsifier, and the concentrate is diluted with emulsifier-containing water to the desired concentration. If the addition of ammonium salts or/and penetrants is required, these are in each case added in a concentration of 1000 ppm to the solution of the preparations. Discs of bean leaves (Phaseolus vulgaris) which are infested by all stages of the leaf-mining fly (Liriomyza trifolii) are sprayed with an active compound preparation of the desired concentration. After the desired period of time, the activity in % is determined. 100% means that all of the leaf-mining flies have been killed; 0% means that none of the leaf-mining flies have been killed.

[10] = system: Bemisia tabaci; assay: Bemisia tabaci spray test (BEMITA); details: Bemisia tabaci, 168 h, 7dat
Procedure: Bemisia Tabaci-Spray Test ([…]) To produce a suitable preparation of active compound, 1 part by weight of active compound is mixed with the stated amount of solvent and emulsifier, and the concentrate is diluted with emulsifier-containing water to the desired concentration. Discs of cotton leaves (Gossypium hirsutum) which are infested by all stages of the whitefly (Bemisia tabaci) are sprayed with an active compound preparation of the desired concentration. After the desired period of time, the activity in % is determined. 100% means that all the whiteflies have been killed; 0% means that none of the whiteflies have been killed.

[11] = system: Avena fatua; assay: Herbicidal pre-emergence action, AVEFA; details: 320 g/ha
Excerpt: (§5) 1. Herbicidal Pre-Emergence Action
(§6) • Seeds of monocotyledonous and dicotyledonous weed plants and crop plants are placed in wood-fiber pots in sandy loam and covered with soil. The test compounds, formulated in the form of wettable powders (WP), are then, as an aqueous suspension with a water application rate of 600 l/ha (converted), with 0.2% of wetting agent added, applied at various dosages to the surface of the covering soil. • After the treatment, the pots are placed in a greenhouse and kept under good growth conditions for the test plants. The visual assessment of the damage to the test plants is carried out after a trial period of about 3 weeks by comparison with untreated controls (herbicidal activity in percent: 100% activity=the plants have died, 0% activity=like control plants). • In addition to the compounds mentioned above, the following compounds show an activity of 90-100% against Alopecurus myosuroides, Digitaria sanguinalis, Echinocloa crus-galli, Lolium multiflorum, Setaria viridis and Sorghum halapense when applied by the pre-emergence method at 320 g/ha of a.i.: I-a-2, I-a-10, I-a-11, I-a-12.
(§7) 1. Herbicidal Pre-Emergence Action (Pre)
(§8) • Seeds of monocotyledonous and dicotyledonous weed plants and crop plants are placed in wood-fiber pots in sandy loam and covered with soil. […]

[12] = system: Lolium multiflorum; assay: Herbicidal pre-emergence action, LOLMU; details: 320 g/ha
Excerpt: as §5, §6, §7, §8

[13] = system: Setaria viridis; assay: Herbicidal pre-emergence action, SETVI; details: 320 g/ha
Excerpt: as §5, §6, §7, §3, §4

[14] = system: Chenopodium album; assay: Herbicidal pre-emergence action, CHEAL; details: 320 g/ha
Excerpt: as §7
as §3, with “the plants. […]” for “the plants.”

[15] = system: Viola tricolor; assay: Herbicidal pre-emergence action, VIOTR; details: 320 g/ha
Excerpt: as §7
as §3, with “the plants. […]” for “the plants.”

[16] = system: Veronica persica; assay: Herbicidal pre-emergence action, VERPE; details: 320 g/ha
Excerpt: as §7
as §3, with “the plants. […]” for “the plants.”

[17] = system: Alopecurus myosuroides; assay: Herbicidal post-emergence action, ALOMY; details: 80 g/ha
Procedure: as §1, §2, §3, §4

[18] = system: Avena fatua; assay: Herbicidal post-emergence action, AVEFA; details: 80 g/ha
Procedure: as §1, §2, §3, §4

[19] = system: Digitaria sanguinalis; assay: Herbicidal post-emergence action, DIGSA; details: 80 g/ha
Procedure: as §1, §2, §3, §4

[20] = system: Echinocloa crus-galli; assay: Herbicidal post-emergence action, ECHCG; details: 80 g/ha
Procedure: as §1, §2, §3, §4

[21] = system: Sorghum halepense; assay: Herbicidal post-emergence action, SORHA; details: 80 g/ha
Procedure: as §1, §2, §3, §4

[22] = system: Veronica persica; assay: Herbicidal post-emergence action, VERPE; details: 80 g/ha
Excerpt: as §3, with “the plants. […]” for “the plants.”

[23] = system: Oryza sativa; assay: Herbicidal post-emergence action, ORYSA; details: 80 g/ha
Excerpt: as §3, §4

[24] = system: Triticum aestivum; assay: Herbicidal post-emergence action, TRZAS; details: 80 g/ha
Excerpt: as §3, §4

[25] = system: Zea mays; assay: Herbicidal post-emergence action, ZEAMX; details: 80 g/ha
Excerpt: as §3, §4

Structure (SMILES): CCc1cc(Cl)cc(OC)c1C1=C(OC(=O)C(C)(C)C)C2(CCC(OC)CC2)NC1=O (stereo not drawn)
- inhibition at 320 g/ha ([1]; Lolium multiflorum, post-emergence, 320 g/ha): 0%
- inhibition at 320 g/ha ([2]; Setaria viridis, post-emergence, 320 g/ha): 0%
- inhibition at 320 g/ha [3]: 0%
- inhibition at 320 g/ha [4]: 0%
- inhibition at 320 g/ha [5]: 0%
- inhibition at 320 g/ha [6]: 0%

Structure (SMILES): CCOC(=O)OC1=C(c2c(C)cc(C)cc2C)C(=O)NC12CCC(COC)CC2 (stereo not drawn) [I-1-c-16 known from WO 07/048545]
- inhibition at 500 g/ha [7]: 67%
- inhibition at 20 g/ha [8]: 0%
- inhibition at 20 g/ha [9]: 0%
- inhibition at 20 g/ha [10]: 27%

Structure (SMILES): CCc1cc(Cl)cc(Cl)c1C1=C(OC(=O)C(C)(C)C)NC2(CCC(C)CC2)C1=O (stereo not drawn) [I-a-4]
- % Activity AVEFA [11]: 50%
- % Activity LOLMU [12]: 100%
- % Activity SETVI [13]: 90%
- % Activity CHEAL [14]: 50%
- % Activity VIOTR [15]: 70%
- % Activity VERPE [16]: 40%
- % Activity ALOMY [17]: 100%
- % Activity AVEFA [18]: 100%
- % Activity DIGSA [19]: 100%
- % Activity ECHCG [20]: 100%
- % Activity LOLMU ([1]; 80 g/ha): 100%
- % Activity SETVI ([2]; 80 g/ha): 100%
- % Activity SORHA [21]: 100%
- % Activity VERPE [22]: 60%
- % Activity ORYSA [23]: 100%
- % Activity TRZAS [24]: 100%
- % Activity ZEAMX [25]: 100%

— patent US9204640B2, “2-acyloxy-pyrrolin-4-ones” (BAYER INTELLECTUAL PROPERTY GMBH, priority 2011, dated 2015)
